According to patent US20120129811A1, “TRICYCLIC INHIBITORS OF PRO-MATRIX METALLOPROTEINASE ACTIVATION” (priority 2010, published 2012):

Target: T1, proMMP9 processing to active MMP9 in HFL-1 cells (Homo sapiens, UniProt P14780)
T1 construct: host or cells: HFL-1 human fetal lung fibroblasts, TNFα plus neutrophil elastase
Test: Activation of proMMP9 by human fetal lung fibroblast (HFL-1) cultures (Western blot)
Assay type: cell-based
Procedure: Activation of proMMP 9 by Human Fetal Lung Fibroblast Cultures
Compound-α was assessed additionally for ability to block the maturation of proMMP9 to active MMP9 in cultures of human fetal lung fibroblasts (HFL-1, American Type Culture Collection # CCL-153). Unlike rat synoviocytes, HFL-1 cells were unable to process proMMP9 to the active form without addition of neutrophil elastase. […] Rather, the function of elastase in this assay may be to inactivate tissue inhibitors of matrix metalloproteinases (TIMPs) that repress endogenous pathways of MMP9 activation (Am J Respir Crit. Care Med; 1999; 159:1138-46).
HLF-1 were maintained in monolayer culture in DMEM with 10% FCS and were used between passage numbers 5-15. HLF-1 were embedded in collagen gels as described for rat SCW synoviocytes (vida supra). Half mL gels containing 0.4 million cells were dislodged into wells of 12 well Costar plates containing 1 mL/well of DMEM adjusted to contain 0.05% BSA and 100 ng/mL human TNFα (R&D Systems Cat #210-TA/CF). After overnight culture (37° C. and 5% CO2) wells were adjusted to contain an additional 0.5 mL of DMEM containing 0.05% BSA and with or without 13.2 μM Compound-α (final concentration was 3.3 μM Compound-α). Next, cultures were adjusted to contain 30 nM human elastase (Innovative Research). The plates were cultured an additional 72 hrs, at which time MMP9 secreted into the conditioned media was bound to gelatin-sepharose and evaluated by Western blot analysis as described for the rat synoviocyte cultures (vida supra). mAb-51/82 detected three forms of MMP9 in HFL-1 cultures.
A second experiment was performed to determine if the 80 kD form was mature active MMP9 and to determine the potency of Compound-α as an inhibitor of MMP9 maturation in this assay. HFL-1 cells embedded in collagen gels were cultured as described above in the presence of TNFα overnight and the cultures were then adjusted to contain 30 nM elastase and graded concentrations of Compound-α for an additional 72 hrs at which time MMP9 secreted into the conditioned media was bound to gelatin-sepharose and evaluated by Western blot analysis for active MMP9 using pAb-1246 raised against the N-terminal neoepitope of active MMP9 (Table 5). In the absence of Compound-α, pAb-1246 readily detected MMP9 with an electrophoretic mobility of approximately 80 kD. […] Inhibition occurred over a dose range with an IC50 of approximately 0.3 μM Compound-α.

T1 sequence (P14780 20-707 limits assumed): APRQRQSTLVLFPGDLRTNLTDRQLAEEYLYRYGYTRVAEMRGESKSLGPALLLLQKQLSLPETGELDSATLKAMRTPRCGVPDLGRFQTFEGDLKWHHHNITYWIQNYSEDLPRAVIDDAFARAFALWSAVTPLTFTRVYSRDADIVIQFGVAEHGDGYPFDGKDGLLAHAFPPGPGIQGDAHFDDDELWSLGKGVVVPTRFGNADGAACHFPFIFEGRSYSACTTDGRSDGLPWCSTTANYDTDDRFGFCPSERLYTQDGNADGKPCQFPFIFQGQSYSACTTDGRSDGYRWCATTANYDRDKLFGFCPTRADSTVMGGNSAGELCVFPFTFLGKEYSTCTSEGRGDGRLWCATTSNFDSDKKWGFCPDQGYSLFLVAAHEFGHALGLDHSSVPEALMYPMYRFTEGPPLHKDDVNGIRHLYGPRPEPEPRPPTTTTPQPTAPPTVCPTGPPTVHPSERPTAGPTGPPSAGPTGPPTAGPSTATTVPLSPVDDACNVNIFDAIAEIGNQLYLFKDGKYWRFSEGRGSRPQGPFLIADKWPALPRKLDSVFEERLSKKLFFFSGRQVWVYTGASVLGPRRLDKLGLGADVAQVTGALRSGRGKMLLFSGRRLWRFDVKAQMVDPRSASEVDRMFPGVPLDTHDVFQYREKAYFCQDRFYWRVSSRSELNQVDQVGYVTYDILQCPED

Cc1nc(C)c(-c2csc(Nc3cc(S(N)(=O)=O)ccc3OC(C)C)n2)s1 [Compound α, 3-(2′,4′-Dimethyl-[4,5′]bithiazolyl-2-ylamino)-4-isopropoxy-benzenesulfonamide.HBr]
Signal, Total (3.3 μM Compound-α, 30 nM elastase, final 72 hrs, mAb-L51/82): 91346 INT * mm^2
Percent of total signal, 80 kD (3.3 μM Compound-α, mAb-L51/82): 7%
Percent of total signal, 86 kD (3.3 μM Compound-α, mAb-L51/82): 47%
Percent of total signal, 100 kD (3.3 μM Compound-α, mAb-L51/82): 46%
inhibition at 0.12 µM (HFL1, 0.12 μM Compound-α, active MMP9, pAb-1246): 0%
inhibition at 0.37 µM (HFL1, 0.37 μM Compound-α, active MMP9, pAb-1246): 73%
inhibition at 1.1 µM (HFL1, 1.1 μM Compound-α, active MMP9, pAb-1246): 99%
inhibition at 3.3 µM (HFL1, 3.3 μM Compound-α, active MMP9, pAb-1246): 100%
inhibition at 10 µM (HFL1, 10 μM Compound-α, active MMP9, pAb-1246): 100%
IC50 (HFL-1 cultures, pAb-1246, read-out: IC50 for inhibition of processing of proMMP9 to active MMP9): ~0.3 µM
